This assay concerns the target T1, cPLA2 (Homo sapiens, UniProt P47712).
T1 sequence (P47712 1-749): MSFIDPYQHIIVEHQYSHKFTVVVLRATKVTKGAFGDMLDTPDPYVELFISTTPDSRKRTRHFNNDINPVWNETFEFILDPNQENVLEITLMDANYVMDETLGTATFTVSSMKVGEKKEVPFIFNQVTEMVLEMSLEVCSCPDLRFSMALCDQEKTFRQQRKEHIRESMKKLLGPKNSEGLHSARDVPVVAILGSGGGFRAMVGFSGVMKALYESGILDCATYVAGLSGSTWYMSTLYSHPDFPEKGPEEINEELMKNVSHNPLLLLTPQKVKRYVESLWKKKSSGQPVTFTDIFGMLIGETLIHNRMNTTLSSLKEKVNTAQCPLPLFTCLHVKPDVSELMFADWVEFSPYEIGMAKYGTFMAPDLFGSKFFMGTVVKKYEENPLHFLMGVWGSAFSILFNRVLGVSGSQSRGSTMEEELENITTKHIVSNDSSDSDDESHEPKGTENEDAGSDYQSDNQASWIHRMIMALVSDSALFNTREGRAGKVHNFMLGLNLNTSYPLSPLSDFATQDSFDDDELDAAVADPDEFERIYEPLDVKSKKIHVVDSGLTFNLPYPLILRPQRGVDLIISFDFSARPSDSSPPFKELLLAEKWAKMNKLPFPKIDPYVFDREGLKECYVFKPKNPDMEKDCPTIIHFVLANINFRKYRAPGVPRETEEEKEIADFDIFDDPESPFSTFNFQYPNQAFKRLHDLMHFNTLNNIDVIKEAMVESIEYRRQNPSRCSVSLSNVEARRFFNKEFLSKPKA
In words: Coumarin Assay (cPLA2 inhibition). The format is biochemical. To be noted: for inhibition at 3.3 µM: Conc 3.3 uM; for inhibition at 8 µM: CONCENTRATION 8 micromolar; for inhibition at 10 µM: CONCENTRATION 10 micromolar. The procedure: Table I reports data for the compounds described in the examples above in cPLA2 inhibition assays (described below). In the data columns of Tables I and II, assay results are reported as a percent inhibition at the concentration specified.
7-hydroxycoumarinyl 6-heptenoate was used as a monomeric substrate for cPLA2 as reported previously (Huang, Z. et al., 1994, Nalytical Biochemistry 222, 110-115). Inhibitors were mixed with 200 μL assay buffer (80 mM Heped, pH 7.5, 1 mM EDTA) containing 60 μM 7-hydroxycoumarinyl 6-heptenoate. The reaction was initiated by adding 4 μg cPLA2 in 50 μL assay buffer. Hydrolysis of the 7-hydroxycounarimyl 6-heptenoate ester was monitored in a fluorometer by exciting at 360 nm and monitoring emission at 460 nm. Enzyme activity is proportional to the increase in emission at 460 nm per minute. In the presence of a cPLA2 inhibitor, the rate of increase is less. The percent inhibition for corresponding concentrations of compounds herein in this Coumarin assay are provided below in Table I.

The mark [1] stands for this setting: Conc 2.5 uM, read-out: % Inhibition.

The term % Inhibition denotes the share of the control response that was lost under treatment. What is called inhibition is the share of the control response that was lost under treatment.

SMILES strings stand for the structures. Read-outs that look alike come from different tables or passages of the source.

For the compound `COc1cc(C(=O)O)ccc1Cc1cn(C(c2ccccc2)c2ccccc2)c2cc(Cl)ccc12` [Example 137, ′4-[(1-benzhydryl-6-chloro-1H-indol-3-yl)methyl]-3-methoxybenzoic acid], under “CONCENTRATION 0.8 micromolar”, the “PERCENT INHIBITION @” value was found to be 50%. `N#Cc1ccc(COCc2c(CCOc3ccc(C(=O)O)cc3)c3cc(Cl)ccc3n2C(c2ccccc2)c2ccccc2)cc1` [Example 163, 4-[2-(1-benzhydryl-5-chloro-2{[(4-cynobenzyl)oxy]methyl}-1H-indol-3-yl)ethoxy]benzoic acid]: the “% Inhibition” value (Conc 1.25 uM) was 50%. As to `O=C(O)c1ccc(OCCc2c(CO)n(C(c3ccccc3)c3ccccc3)c3ccc(Cl)cc23)cc1` [Example 151, 4-{2-[1-benzhydryl-5-chloro-2-(hydroxymethyl)-1H-indol-3-yl]ethoxy}benzoic acid], the inhibition at 3.3 µM stood at 50%. Take `O=C(Nc1cccc(C(=O)O)c1)C(=O)c1cn(CCCOc2ccc(Cc3ccccc3)cc2)c2ccccc12` [Example 62, 3-[(2-{1-[3-(4-benzylphenoxy)propyl]-1H-indol-3-yl}-2-oxoacetyl)amino]benzoic acid]: the inhibition at 7 µM (CONCENTRATION 7 micromolar, read-out: PERCENT INHIBITION @) is 50%. Also, the inhibition at 12.5 µM (CONCENTRATION 12.5 micromolar, read-out: PERCENT INHIBITION @) stood at 86%. Regarding `O=C(O)CN1C(=O)S/C(=C/c2cn(CCCOc3cccc(Cc4ccccc4)c3)c3ccccc23)C1=O` [Example 82C, 2-[5-((E)-{1-[3-(3-benzylphenoxy)propyl]-1H-indol-3-yl}methylidene)-2,4-dioxo-1,3-thiazolan-3-yl]acetic acid], under “read-out: PERCENT INHIBITION @”, the inhibition at 8 µM was 50% and the inhibition at 10 µM is 50%. For the compound `Cn1c(CSc2ccc3ccccc3c2)c(C(=O)C(=O)Nc2cccc(C(=O)O)c2)c2cc(OCc3ccccc3)ccc21` [Example 113, 3-[(2-{5-(benzyloxy)-1-methyl-2-[(2-naphthylsulfanyl)methyl]-1H-indol-3-yl}-2-oxoacetyl)amino]benzoic acid], the inhibition at 7.5 µM (CONCENTRATION 7.5 micromolar, read-out: PERCENT INHIBITION @) worked out at 50%. Besides, the inhibition at 8 µM (read-out: PERCENT INHIBITION @) was 50%. For the compound `COc1cc(C(=O)O)ccc1Cc1cn(Cc2ccncc2)c2ccc(NC(=O)OC3CCCC3)cc12` [Example 6, 4-{[5-{[(cyclopentyloxy)carbonyl]amino}-1-(4-pyridinylmethyl)-1H-indol-3-yl]methyl}-3-methoxybenzoic acid], where the note is “CONCENTRATION 100 micromolar, read-out: PERCENT INHIBITION @”, the inhibition at 100 µM was 11%. Besides, the inhibition at 200 µM (CONCENTRATION 200 micromolar, read-out: PERCENT INHIBITION @) was 50%. For `Cc1c(CCS(=O)(=O)c2ccc(C(=O)O)cc2)c2ccc(Cl)cc2n1C(c1ccccc1)c1ccccc1` [Example 140, 4-{[2-(1-benzhydryl-6-chloro-2-methyl-1H-indol-3-yl)ethyl]sulfonyl}benzoic acid], under setting [1], the inhibition at 2.5 µM turned out to be 50%. The same measure, in the same setting: next, `Cc1c(CCOc2ccc(C(=O)O)cc2)c2cc(Cl)ccc2n1C(c1ccccc1)c1ccccc1` [Example 149, 4-[2-(1-benzhydryl-5-chloro-2-methyl-1H-indol-3-yl)ethoxy]benzoic acid]: 50%. Regarding `COCc1c(CCOc2ccc(C(=O)O)cc2)c2cc(Cl)ccc2n1C(c1ccccc1)c1ccccc1` [Example 152, 4-{2-[1-benzhydryl-5-chloro-2-(methoxymethyl)-1H-indol-3-yl]ethoxy}benzoic acid], 3.3 µM produced 50% inhibition. Regarding `O=C(O)c1ccc(OCCc2c(COCc3ccccc3)n(C(c3ccccc3)c3ccccc3)c3ccc(Cl)cc23)cc1` [Example 160, 4-(2-{1-benzhydryl-2-[(benzyloxy)methyl]-5-chloro-1H-indol-3-yl}ethoxy)benzoic acid], the inhibition at 2 µM (Conc 2 uM, read-out: % Inhibition) turned out to be 50%. As for `COc1cc(C(=O)NS(=O)(=O)c2nnc(NC(C)=O)s2)ccc1Cc1cn(C(c2ccccc2)c2ccccc2)c2ccc(NC(=O)OC3CCCC3)cc12` [Example 34, cyclopentyl N-(3-{4-[({[5-(acetylamino)-1,3,4-thiadiazol-2-yl]sulfonyl}amino)carbonyl]-2-methoxybenzyl}-1-benzhydryl-1H-indol-5-yl)carbamate], the inhibition at 2 µM (CONCENTRATION 2 micromolar, read-out: PERCENT INHIBITION @) is 50%. The inhibition at 2.5 µM (CONCENTRATION 2.5 micromolar, read-out: PERCENT INHIBITION @) stood at 57%.

Consider `O=C(O)CCc1ccc(OCCc2c(COCc3ccc(F)cc3)n(C(c3ccccc3)c3ccccc3)c3ccc(Cl)cc23)cc1` [Example 165, 3-{4-[2-(1-benzhydryl-5-chloro-2-{[(4-fluorobenzyl)oxy]methyl}-1H-indol-3-yl)ethoxy]phenyl}propanoic acid], for which the inhibition at 0.8 µM (Conc 0.8 uM, read-out: % Inhibition) came to 50%. In the case of `COc1cc(C(=O)NS(=O)(=O)c2ccc(N3N=C(C)CC3=O)cc2)ccc1Cc1cn(C(c2ccccc2)c2ccccc2)c2ccc(NC(=O)OC3CCCC3)cc12` [Example 35, cyclopentyl N-(1-benzhydryl-3-{2-methoxy-4[({[4-(3-methyl-5-oxo-4,5-dihydro-1H-pyrazol-1-yl)phenyl]sulfonyl}amino)carbonyl]benzyl}-1H-indol-5-yl)carbamate], the inhibition at 10 µM (read-out: PERCENT INHIBITION @) stood at 23%. For the same compound, the inhibition at 20 µM (CONCENTRATION 20 micromolar, read-out: PERCENT INHIBITION @) stood at 42%. Further, the inhibition at 41 µM (CONCENTRATION 41 micromolar, read-out: PERCENT INHIBITION @) amounted to 50%. Turning to `Cc1c(CCSc2ccc(C(=O)O)cc2)c2cc(Cl)ccc2n1C(c1ccccc1)c1ccccc1` [Example 146, 4-{[2-(1-benzhydryl-5-chloro-2-methyl-1H-indol-3-yl)ethyl]sulfany}benzoic acid], the “% Inhibition” value (Conc 1.6 uM) worked out at 50%. As to `COc1cc(C(=O)NS(=O)(=O)c2c(C)noc2C)ccc1Cc1cn(C(c2ccccc2)c2ccccc2)c2ccc(NC(=O)OC3CCCC3)cc12` [Example 33, cyclopentyl N-{1-benzhydryl-3-[4-({[(3,5-dimethyl-4-isoxazolyl)sulfonyl]amino}carbonyl)-2-methoxybenzyl]-1H-indol-5-yl}carbamate], the inhibition at 4.4 µM (CONCENTRATION 4.4 micromolar, read-out: PERCENT INHIBITION @) is 50%. Further, where the note is “CONCENTRATION 4.9 micromolar, read-out: PERCENT INHIBITION @”, the inhibition at 4.9 µM stood at 50%. Consider `O=C(O)c1ccc(OCCc2c(CS(=O)(=O)c3ccccc3)n(C(c3ccccc3)c3ccccc3)c3ccc(Cl)cc23)cc1` [Example 153, 4-(2-{1-benzhydryl-5-chloro-2-[(phenylsulfonyl)methyl]-1H-indol-3-yl}ethoxy)benzoic acid], for which, under “Conc 3 uM, read-out: % Inhibition”, the inhibition at 3 µM was 50%. As to `COc1cc(C(=O)O)ccc1Cc1cn(Cc2ccc3ccccc3c2)c2ccc(NC(=O)OC3CCCC3)cc12` [Example 4, 4-{[5-{[(cyclopentyloxy)carbonyl]amino}-1-(2-naphthylmethyl)-1H-indol-3-yl]methyl}3-methoxybenzoic acid], under “CONCENTRATION 5 micromolar, read-out: PERCENT INHIBITION @”, the inhibition at 5 µM was found to be 50%. The inhibition at 11 µM (CONCENTRATION 11 micromolar, read-out: PERCENT INHIBITION @) was found to be 50%. For the compound `O=C(O)C1CC1Cc1cn(C(c2ccccc2)c2ccccc2)c2cc(Cl)c(F)cc12` (stereo not shown) [Example 127, 2-[(1-benzhydryl-6-chloro-5-fluoro-1H-indol-3-yl)methyl]cyclopropanecarboxylic acid], the inhibition at 1.1 µM (CONCENTRATION 1.1 micromolar, read-out: PERCENT INHIBITION @) stood at 50%. As for `O=C(Nc1cccc(C(=O)O)c1)C(=O)c1cn(Cc2ccccc2S(=O)(=O)Cc2ccccc2)c2ccccc12` [Example 64, 3-[(2-{1-[2-(benzylsulfonyl)benzyl]-1H-indol-3-yl}-2-oxoacetyl)amino]benzoic acid], the inhibition at 32 µM (CONCENTRATION 32 micromolar, read-out: PERCENT INHIBITION @) came to 50%. Moreover, the inhibition at 37 µM (CONCENTRATION 37 micromolar, read-out: PERCENT INHIBITION @) amounted to 50%. `O=C(O)c1ccc(Cc2cn(C(c3ccccc3)c3ccccc3)c3cc(Cl)ccc23)c(OCCCO)c1` [Example 131, ′4-[(1-benzhydryl-6-chloro-1H-indol-3-yl)methyl]-3-(3-hydroxypropoxy)benzoic acid]: the “PERCENT INHIBITION @” value (CONCENTRATION 0.6 micromolar) stood at 50%.

These data come from patent US6500853B1, “Inhibitors of phospholipase enzymes” (Genetics Institute, LLC, priority 1998, dated 2002).
